Data taken from patent publication US8367317B2, “Variants of hepatitis B virus with resistance to anti-viral nucleoside agents and applications thereof” (Melbourne Health; St. Vincent's Hospital Melbourne; Austin …, priority 2005, dated 2013).
Counter-ions that a name gives are not always drawn.

How the values were obtained:
[1] = system: WT HBV (genotype D isolate, precore G1896A background); experiment: Antiviral testing in HepG2 cells transduced with recombinant HBV/baculovirus, wild type; assay type: cell-based, hepatitis B virus; settings: none (WT) polymerase; area under dose-response curve; values set to 1.0 (relative to WT)
Protocol: (§1) The sensitivity/resistance profile of HBV mutants to adefovir, tenofovir and other antiviral agents was examined in vitro using recombinant HBV/baculovirus. The procedure for analysing the resistance profile is outlined in the following Examples 7-14.
(§2) Sf21 insect cells were maintained in supplemented Grace's insect medium further supplemented with 10% v/v heat-inactivated fetal bovine serum (Gibco BRL, Gaithersburg, Md.) in humidified incubator at 28 C with CO2. HepG2 cells were maintained in minimal essential medium supplemented with 10% v/v heat-inactivated fetal bovine serum (MEM-FBS). HepG2 cells were grown in humidified 37° C. incubators at 5% v/v CO2.
(§3) The recombinant HBV/baculovirus system used for antiviral testing has been previously described (Delaney et al., Antimicrob Agents Chernother 45(6): 1705-[…], 2001). In brief, the recombinant transfer vector was created by excising a fragment containing the 1.3× HBV genome construct and cloning it into the multiple cloning region of a baculovirus vector pBlueBac4.5 (Invitrogen, Carlsbad, Calif.). Point mutations were created by site directed mutagenesis using the commercial kits according to the manufacturers specifications (QuikChange, Stratagene). The nucleotide sequence of the plasmid and the point mutations generated by site directed mutagenesis were confirmed by sequencing using the ABI Prism Big Dye Terminator Cycle Sequencing Ready Reaction Kit according to the manufacturer's specifications (Perkin Elmer, Cetus Norwalk, Conn.). The panel of HBV mutants was generated from a wild type (WT) genotype D HBV isolate by site-directed mutagenesis. Mutants encoded either WT HBV polymerase or polymerase with the amino acid substitutions listed in Table 8 in an HBeAg negative (precore [PC] G1896A mutant) background. Other HBV mutants can be made and tested for antiviral sensitivity in a similar manner.
(§4) Purified recombinant transfer vector and linear AcMNPV baculovirus DNA were co-transfected into Sf21 cells using the BacNBlue transfection kit from Invitrogen (Carlsbad, Calif.); recombinant viruses were isolated by plaque assay according to the manufacturer's instructions. A series of recombinant viruses were amplified from isolated plaques by infecting 100-mm dishes of Sf21 cells. Viral DNA was extracted from amplified viruses using standard procedures. Purified viral DNA was digested with restriction enzymes and then fractionated by electrophoresis in a 1% […] agarose gel. Southern blotting was performed to determine which virus isolates contained the intact 1.3 HBV construct. A Boehringer Mannheim Random Prime DNA Labeling kit (Indianapolis, Ind.) was used to generate [P^32]-radiolabeled probes. A full-length double-stranded HBV genome was used as a template for all radiolabeled probes. Viral DNA sequence was confirmed by PCR amplification and sequencing of the polymerase catalytic region.
(§5) Baculoviruses were amplified by infecting suspension cultures of Sf21 cells in log phase at a multiplicity of infection (moi) of 0.5 pfu/cell. […] Virions were concentrated from infected Sf21 medium by centrifugation at 80,000×g and purified through a 20-60% w/v sucrose gradient. Purified virus was titrated in quadruplicate in Sf21 cells by end-point dilution. An aliquot of each high titer stock was used for DNA extraction. The polymerase gene was amplified and sequenced to confirm the presence of the site-directed mutagenesis.
(§6) HepG2 cells were seeded at approximately 20-40% confluency and then were grown for 16-24 hours before infection. On the day of infection, triplicate plates of cells were trypsinized, and viable cell number was determined with a hemocytometer using Trypan blue exclusion. Average cell counts were calculated and used to determine the volume of high-titer viral stock necessary to infect cells at the indicated moi. HepG2 cells were washed one time with serum-free MEM to remove traces of serum. […]

[2] = system: HBV mutant L180M double (rt L180M, M204V); experiment: Antiviral testing in HepG2 cells transduced with recombinant HBV/baculovirus, L180M double mutant; assay type: cell-based, hepatitis B virus; settings: area under dose-response curve, value relative to WT = 1.0
Protocol: as §1, §2, §3, §4, §5, §6

[3] = system: HBV mutant L180M quad (rt L180M, T184G, S202I, M204V); experiment: Antiviral testing in HepG2 cells transduced with recombinant HBV/baculovirus, L180M quad mutant; assay type: cell-based, hepatitis B virus; settings: area under dose-response curve, value relative to WT = 1.0
Protocol: as §1, §2, §3, §4, §5, §6

[4] = system: HBV mutant V173L triple (rt V173L, L180M, M204V); experiment: Antiviral testing in HepG2 cells transduced with recombinant HBV/baculovirus, V173L triple mutant; assay type: cell-based, hepatitis B virus; settings: area under dose-response curve, value relative to WT = 1.0
Protocol: as §1, §2, §3, §4, §5, §6

HBV = settings: 30 mg daily dose, over 12 weeks, phase II studies; cited from earlier work

| Structure (SMILES) | AUC [1] | AUC [2] | AUC [3] | AUC [4] | mean decrease in viremia (HBV) [log10] |
| --- | --- | --- | --- | --- | --- |
| CC(C)(C)C(=O)OCOP(=O)(COCCn1cnc2c(N)ncnc21)OCOC(=O)C(C)(C)C [ADV, adefovir dipivoxil] | 1.0 | 1.7 | 1.3 | 0.4 | 4 |
| C=C1[C@H](CO)[C@@H](O)C[C@@H]1n1cnc2c(=O)[nH]c(N)nc21 [ETV, entecavir] | 1.0 | 215.9 | 242.7 | 47.5 | – |
| Nc1nc(=O)n([C@@H]2CS[C@H](CO)O2)cc1F [FTC, (−)-β-L-2′-3′-dideoxy-5-fluoro-3′-thiacydidine] | 1.0 | 761.4 | 464.4 | 1200.0 | – |
| Cc1cn([C@@H]2C[C@@H](O)[C@H](CO)O2)c(=O)[nH]c1=O [L-dT] | 1.0 | 13.7 | 21.1 | 12.7 | – |
| Nc1ccn([C@@H]2CS[C@H](CO)O2)c(=O)n1 [LMV, (−)-β-2′-deoxy-3′-thiacytidine] | 1.0 | 363.1 | 603.4 | 625.3 | – |
| CC(C)OC(=O)OCOP(=O)(CO[C@H](C)Cn1cnc2c(N)ncnc21)OCOC(=O)OC(C)C [TFV, tenofovir disoproxil fumarate] | 1.0 | 2.1 | 4.2 | 2.3 | – |
